The results in this text go back to patent US11319348B2, “Synthetic beta-amyloid peptides capable of forming stable antigenic oligomers” (The Regents of the University of California, priority 2016, dated 2022).

“Also recorded” adds a separate entry of the source.

In one data set the test system is SH-SY5Y cells. Put plainly: LDH release assay. In kind it is cell-based, human. As for the experimental part:
Aβ is known to be toxic toward neurons and neuronally derived cells (I. Benilova, et al., 2012, cited supra). To corroborate the toxicity of Aβ, we prepared oligomers of Aβ42 and studied their toxicity toward a human neuroblastoma cell line, SH-SY5Y. Aβ oligomers were prepared according to the procedure developed by Teplow and coworkers using recombinantly expressed Aβ42 pretreated with NH4OH (purchased from rPeptide) (D. B. Teplow, Methods Enzymol. 2006 413, 20-33; and Y. Fezoui, et al., Amyloid. 2000 7, 166-178; the disclosures of which are incorporated herein by reference). Under the conditions of the oligomer preparation, Aβ42 forms predominantly monomer, trimer, and tetramer as assessed by SDS-PAGE (FIG. 28A). It was also observed that bands migrated with molecular weights consistent with a pentamer and hexamer. SH-SY5Y cells were treated with varying concentrations of Aβ42, and toxicity was evaluated using a lactate dehydrogenase (LDH) release assay. Aβ42 increased LDH release in a dose-dependent manner at concentrations as low as 2.5 μM, corroborating the toxicity of Aβ42 (FIG. 28B).
It was hypothesized that trimers 3 and 4 may elicit toxicity similarly to Aβ42. The toxicities of trimers 3 and 4 towards SH-SY5Y cells were evaluated using an LDH assay, using deionized water (vehicle) and peptides 1 and 2 as controls. Trimer 4 increased LDH release in a dose-dependent manner at concentrations as low as 1.5 μM, indicating toxicity toward SH-SY5Y cells (FIG. 29A). LDH release was observed as early as 48 h after addition to the cells and reached a maximum after 72 h.
Many oligomers formed by full-length Aβ are toxic toward cells (I. Benilove, E. Karan, and B. De Strooper, Nat. Neurosci. 2012 15, 349-357; and M. E. Larson and S. E. Lesne J. Neurochem. 2012 120, 125-139; the disclosures of which are incorporated herein by reference). To test whether the oligomers formed by peptide 8 are also toxic, the toxicity of peptide 8 toward neuronally derived SH-SY5Y cells were evaluated using a lactate dehydrogenase (LDH) release assay. Peptide 8 and 10 were compared to investigate how the hexamer-forming Aβ16-36-derived peptide compares to a non-oligomerizing homologue. The toxicity of peptides 2 and 11 were also evaluated to better understand the relationship between oligomerization and toxicity.
The toxicities of peptides 1 and […], and trimers 3 and 4 toward SH-SY5Y cells were assessed by LDH release and caspase-3 activation assays. Cells were incubated in the presence or absence of equivalent concentrations of peptides 1 or 3, or trimers 3 and 4 for 72 h in 96-well plates. The LDH release assay was performed using the Pierce LDH Cytotoxicity Assay Kit from Thermo Scientific. The caspase-3 assay was performed using the Roche APO-One Homogeneous Caspase-3/7 Assay. Experiments were performed in replicates of five and an additional 10 wells were used for controls. Cells were cultured in the inner 60 wells (rows B-G, columns 2-11) of the 96-well plate. DMEM:F12 media (100 μL) was added to the outer wells (rows A and H, columns 1 and 12), in order to ensure the greatest reproducibility of data generated in the inner wells.
A 10 mg/mL stock solution of peptides 1 or […], or trimers 3 and 4 was prepared gravimetrically by dissolving 1 mg of each compound in 100 μL of deionized water that was either filtered through a 0.2 μm syringe filter or autoclaved. The stock solution was used to create 180 μM working solutions of peptides 1 or 3, or 60 μM working solutions of trimers 3 and 4 (these solutions contain equivalent concentrations of peptide). The 180 μM working solutions of peptides 1 and 2 were serially diluted with deionized water to create 90 μM working solutions of peptides 1 and 2. The 60 μM working solutions of trimers 3 and 4 were serially diluted with deionized water to create 30 μM, 15 μM, and 7.5 μM working solutions of trimers 3 and 4.
SH-SY5Y cells were plated in a 96-well plate at 30,000 cells per well. […]

A short description of data set [1]: Tricine SDS-PAGE with silver staining. Format: physicochemical. An excerpt: Trimer 3 migrates as a single band at a molecular weight consistent with a hexamer. Trimer 4, in contrast, migrates as two distinct bands: a band consistent with the molecular weight of a dodecamer, and a band consistent with the molecular weight of a trimer.
Peptide 8 assembles to form a hexamer in SDS-PAGE. […] To further confirm the oligomerization state of […], it was compared to covalent trimers 3 and 4 (FIGS. 19A and 19B), which was previously determined to migrate respectively as 10.6 kDa hexamers and 21.2 kDa dodecamers in equilibrium with the 5.3 kDa trimers. Peptide 8 migrates at the same molecular weight as the hexamer band of trimer 3, providing further evidence that peptide 8 assembles to form a hexamer in SDS-PAGE.
The oligomerization of peptides 1 and 2 and trimers 3 and 4 was studied by Tricine SDS-PAGE.
Each peptide or trimer was dissolved in deionized water to a concentration of 10 mg/mL. An aliquot of the 10 mg/mL solutions was diluted with deionized water to create 2 mg/mL solutions of peptides 1 and 2, or 0.12 mg/mL solutions of trimers 3 and 4. The […] of peptides 1 and 2, as well as the 0.12 mg/mL solutions of trimers 3 and 4 were further diluted with 2×SDS-PAGE loading buffer (100 mM Tris buffer at pH 6.8, 20% (v/v) glycerol, and 4% SDS) to create 1 mg/mL working solutions of peptides 1 and 2, and 0.06 mg/mL working solutions of trimers 3 and 4. A 5 μL aliquot of each working solution was run on a 16% polyacrylamide gel with a 4% stacking polyacrylamide gel. The gels were run at a constant 60 volts at 4° C.
Staining with silver nitrate was used to visualize peptides 1 and 2 and trimers 3 and 4 in the SDS-PAGE gel. Briefly, the gel was removed from the casting glass and rocked in fixing solution (50% (v/v) methanol and 5% (v/v) acetic acid in deionized water) for 20 min. Next, the fixing solution was discarded and the gel was rocked in 50% (v/v) methanol for 10 min. Next, the 50% methanol was discarded and the gel was rocked in deionized water for 10 min. Next, the water was discarded and the gel was rocked in 0.02% (w/v) sodium thiosulfate in deionized water for 1 min. The sodium thiosulfate was discarded and the gel was rinsed with deionized water (2×). After the last rinse, the gel was submerged in chilled 0.1% (w/v) silver nitrate in deionized water and rocked at 4° C. for 20 min. Next, the silver nitrate solution was discarded and the gel was rinsed with deionized water (2×). To develop the gel, the gel was incubated in developing solution (2% w/v sodium carbonate, 0.04% formaldehyde until the desired intensity of staining was reached (˜1-3 min). When the desired intensity of staining was reached, the development was topped by discarding the developing solution and submerging the gel in 5% acetic acid.

The nature of data set [2]: size exclusion chromatography in Tris buffer. Format: physicochemical. An excerpt: The elution profile of peptide 8 was compared to the size standards vitamin B12, aprotinin, and cytochrome c, as well as peptide 2. Peptide 8 elutes as a broad peak with three distinct humps (FIG. 41B). […] Peptide 2 elutes as two distinct peaks: a larger peak with an elution volume consistent with the molecular weight of a dimer, and a smaller peak with an elution volume consistent with the molecular weight of a trimer (FIG. 41B). […]
In general terms: In gel filtration, larger molecules generally elute earlier.

As for “Aβ42: oligomers prepared from recombinantly expressed Aβ42 pretreated with NH4OH (purchased from rPeptide) [reference compound]”, in the data set on SH-SY5Y cells (SH-SY5Y cells), the “lowest concentration with increased LDH release / toxicity (concentrations as low as)” value was 2.5 µM.
As to “peptide 8: Aβ16-22 and Aβ30-36 β-strands linked by two δOrn turn units, N-methyl on Phe19, native Met35 (Seq. ID 33-34)”, the “dose dependence of LDH release” value in the data set with SH-SY5Y cells (50, 100 and 200 μM) is listed as “No dose dependence”. Also, in the data set with SH-SY5Y cells (SH-SY5Y cells), the “LDH release / toxicity toward SH-SY5Y cells, in words” value was “toxic” and the “lowest concentration with increased LDH release / toxicity (concentrations as low as)” value was 50 µM. In addition, in data set [1], the “oligomer state by migration in SDS-PAGE” value is reported as “hexamer”. In addition, the oligomer size result in data set [2] (SEC) was “monomer, dimer,; also recorded: trimer”. Further, in data set [2] (absence of SDS), the “oligomer state consistent with SEC elution volume” value is “dimers and trimers; also recorded: monomer, dimer, and trimer”.
